Patent US20220323406A1, “METHODS AND COMPOSITIONS FOR DIFFERENTIATING STEM CELLS” (Massachusetts Institute of Technology, priority 2019, published 2022)

Experiments:
[1] = system: ENR+CD organoids (ISC to Paneth cell differentiation); test: Primary screen: CCh-stimulated lysozyme secretion LYZ.S, 2.5-D 384-well ENR+CD organoid differentiation; format: cell-based, mouse; conditions: primary screen
Source text: (§1) High-throughput screening.

ENR+CD organoids = test: Primary screen: ATP (CellTiter-Glo 3D, CTG) cell number/viability, 2.5-D 384-well ENR+CD organoids;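 note: compounds given at plating and again on day 3 over a 6-day differentiation from ENR+CV stem-cell-enriched precursors, ATP measured on day 6, plate median as control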
[2] = system: ENR+CD organoids (ISC to Paneth cell differentiation); test: Primary screen: basal (non-stimulated) lysozyme secretion LYZ.NS, 2.5-D 384-well ENR+CD organoid differentiation; format: cell-based, mouse
Source text: as §1

[3] = primary screen, standard z score, dose 0.08 uM
[4] = primary screen, standard z score, dose 0.40 uM
[5] = primary screen, standard z score, dose 2.00 uM
[6] = primary screen, standard z score, dose 10.00 uM
[7] = dose 0.08 uM, FC relative to plate median
[8] = dose 0.40 uM, FC relative to plate median
[9] = dose 2.00 uM, FC relative to plate median
[10] = dose 10.00 uM, FC relative to plate median
[11] = primary screen, dose 0.08 uM, FC relative to plate median
[12] = primary screen, dose 0.08 uM, standard z score
[13] = primary screen, dose 0.40 uM, FC relative to plate median
[14] = primary screen, dose 0.40 uM, standard z score
[15] = primary screen, dose 2.00 uM, FC relative to plate median
[16] = primary screen, dose 2.00 uM, standard z score
[17] = primary screen, dose 10.00 uM, FC relative to plate median
[18] = primary screen, dose 10.00 uM, standard z score

SMILES | Dose.FC.LYZ.S ([1]; dose 0.08 uM) [log2 fold change] | Dose.FC.LYZ.S ([1]; dose 0.40 uM) [log2 fold change] | Dose.FC.LYZ.S ([1]; dose 2.00 uM) [log2 fold change] | Dose.FC.LYZ.S ([1]; dose 10.00 uM) [log2 fold change] | Dose.FC.CTG (ENR+CD organoids; primary screen, dose 0.08 uM) [log2 fold change] | Dose.FC.CTG (ENR+CD organoids; primary screen, dose 0.40 uM) [log2 fold change] | Dose.FC.CTG (ENR+CD organoids; primary screen, dose 2.00 uM) [log2 fold change] | Dose.FC.CTG (ENR+CD organoids; primary screen, dose 10.00 uM) [log2 fold change] | Dose.FC.LYZ.NS ([2]; primary screen, dose 0.08 uM) [log2 fold change] | Dose.FC.LYZ.NS ([2]; primary screen, dose 0.40 uM) [log2 fold change] | Dose.FC.LYZ.NS ([2]; primary screen, dose 2.00 uM) [log2 fold change] | Dose.FC.LYZ.NS ([2]; primary screen, dose 10.00 uM) [log2 fold change] | Z.LYZ.NS (standard z score) ([2]; primary screen, dose 0.08 uM) | Z.LYZ.NS (standard z score) ([2]; primary screen, dose 0.40 uM) | Z.LYZ.NS (standard z score) ([2]; primary screen, dose 2.00 uM) | Z.LYZ.NS (standard z score) ([2]; primary screen, dose 10.00 uM) | Z.CTG (standard z score) (ENR+CD organoids; primary screen, dose 0.08 uM) | Z.CTG (standard z score) (ENR+CD organoids; primary screen, dose 0.40 uM) | Z.CTG (standard z score) (ENR+CD organoids; primary screen, dose 2.00 uM) | Z.CTG (standard z score) (ENR+CD organoids; primary screen, dose 10.00 uM) | further results
COCCOc1ccc2c(c1)ncn2-c1ccc2cccc(N3CCC(N)CC3)c2n1 [CP-673451] | 0.096 | −0.046 | 0.080 | −0.147 | 0.069 | 0.186 | 0.008 | −0.258 | 0.031 | 0.066 | 0.102 | −0.058 |  |  |  |  |  |  |  |  | Z.LYZ.NS [2, 3]: 0.274; Z.LYZ.NS [2, 4]: 0.577; Z.LYZ.NS [2, 5]: 0.886; Z.LYZ.NS [2, 6]: −0.508
Cc1ccccc1C(=O)Nc1ccc(C(=O)N2CCCC(O)c3cc(Cl)ccc32)c(C)c1 (stereo not shown) [Tolvaptan] | 0.086 | 0.031 | −0.048 | −0.150 | 0.095 | −0.008 | −0.094 | −0.104 | 0.049 | −0.041 | −0.023 | −0.093 | 0.429 | −0.355 | −0.204 | −0.807 |  |  |  |  | 
CC(C)NC[C@@H](C(=O)N1CCN(c2ncnc3c2[C@H](C)C[C@H]3O)CC1)c1ccc(Cl)cc1 [GDC-0068] | 0.076 | 0.087 | −0.059 | −0.319 | 0.042 | 0.118 | 0.184 | −0.100 | 0.036 | 0.054 | −0.077 | −0.185 |  |  |  |  |  |  |  |  | Z.CTG (ENR+CD organoids; [3]): 0.099; Z.CTG (ENR+CD organoids; [4]): 0.283; Z.CTG (ENR+CD organoids; [5]): 0.439; Z.CTG (ENR+CD organoids; [6]): −0.238; Z.LYZ.NS [2, 3]: 0.311; Z.LYZ.NS [2, 4]: 0.469; Z.LYZ.NS [2, 5]: −0.675; Z.LYZ.NS [2, 6]: −1.613
CNC(=O)[C@H](Cc1ccccc1)NC(=O)[C@H](CC(C)C)[C@H](CSc1cccs1)C(=O)NO [Batimastat (BB-94)] | 0.053 | 0.028 | 0.056 | −0.107 | 0.035 | −0.095 | −0.049 | −0.283 | −0.003 | 0.005 | 0.081 | −0.075 | −0.025 | 0.042 | 0.707 | −0.649 | 0.084 | −0.226 | −0.117 | −0.676 | 
COc1cc2/c(=N/c3ccc(Br)cc3F)nc[nH]c2cc1OCC1CCN(C)CC1 [Vandetanib (ZD6474)] | −0.139 | −0.054 | −0.384 | −0.494 | −0.648 | −0.366 | −0.874 | −1.206 | −0.068 | −0.091 | −0.271 | −0.298 | −0.594 | −0.792 | −2.356 | −2.594 | −1.547 | −0.874 | −2.089 | −2.880 | 
COc1nc(C)cnc1NS(=O)(=O)c1cccnc1-c1ccc(-c2nnco2)cc1 [Zibotentan (ZD4054)] | 0.168 | 0.130 | −0.038 | 0.050 | 0.104 | −0.009 | −0.768 | −0.001 | 0.094 | 0.054 | −0.003 | 0.101 | 0.820 | 0.474 | −0.029 | 0.877 | 0.249 | −0.022 | −1.834 | −0.003 | 
C[S+]([O-])c1ccc(-c2nc(-c3ccc(F)cc3)c(-c3ccncc3)[nH]2)cc1 (stereo not shown) [SB203580] |  |  |  |  |  |  |  |  |  |  |  |  |  |  |  |  |  |  |  |  | Dose.FC.LYZ.S [1, 7]: 0.148 log2 fold change; Dose.FC.LYZ.S [1, 8]: 0.098 log2 fold change; Dose.FC.LYZ.S [1, 9]: 0.077 log2 fold change; Dose.FC.LYZ.S [1, 10]: 0.069 log2 fold change; Dose.FC.CTG (ENR+CD organoids; [11]): 0.201 log2 fold change; Z.CTG (ENR+CD organoids; [12]): 0.479; Dose.FC.CTG (ENR+CD organoids; [13]): 0.149 log2 fold change; Z.CTG (ENR+CD organoids; [14]): 0.356; Dose.FC.CTG (ENR+CD organoids; [15]): 0.237 log2 fold change; Z.CTG (ENR+CD organoids; [16]): 0.567; Dose.FC.CTG (ENR+CD organoids; [17]): 0.182 log2 fold change; Z.CTG (ENR+CD organoids; [18]): 0.435; Dose.FC.LYZ.NS [2, 11]: 0.092 log2 fold change; Z.LYZ.NS [2, 12]: 0.805; Dose.FC.LYZ.NS [2, 13]: 0.127 log2 fold change; Z.LYZ.NS [2, 14]: 1.109; Dose.FC.LYZ.NS [2, 15]: 0.052 log2 fold change; Z.LYZ.NS [2, 16]: 0.453; Dose.FC.LYZ.NS [2, 17]: 0.023 log2 fold change; Z.LYZ.NS [2, 18]: 0.199
Nc1ccc(C(=O)[O-])c(O)c1.[Na+] [Sodium 4-Aminosalicylate] |  |  |  |  |  |  |  |  |  |  |  |  |  |  |  |  |  |  |  |  | Dose.FC.LYZ.S [1, 7]: 0.162 log2 fold change; Dose.FC.LYZ.S [1, 8]: 0.050 log2 fold change; Dose.FC.LYZ.S [1, 9]: 0.099 log2 fold change; Dose.FC.LYZ.S [1, 10]: 0.143 log2 fold change; Dose.FC.CTG (ENR+CD organoids; [11]): 0.119 log2 fold change; Dose.FC.CTG (ENR+CD organoids; [13]): 0.204 log2 fold change; Dose.FC.CTG (ENR+CD organoids; [15]): 0.038 log2 fold change; Dose.FC.CTG (ENR+CD organoids; [17]): 0.247 log2 fold change; Dose.FC.LYZ.NS [2, 11]: 0.080 log2 fold change; Z.LYZ.NS [2, 12]: 0.695; Dose.FC.LYZ.NS [2, 13]: 0.041 log2 fold change; Z.LYZ.NS [2, 14]: 0.354; Dose.FC.LYZ.NS [2, 15]: 0.156 log2 fold change; Z.LYZ.NS [2, 16]: 1.354; Dose.FC.LYZ.NS [2, 17]: 0.091 log2 fold change; Z.LYZ.NS [2, 18]: 0.796
